Data published in patent publication US20080213780A1, “MULTI-COLOR TIME RESOLVED FLUOROPHORES BASED ON MACROCYCLIC LANTHANIDE COMPLEXES” (Lumiphore, Inc., priority 2007, published 2008).
Several values for one entry are separate records, joined by “and”; a condition that tells them apart may be missing. Equal values may be shown once.

Tests used:
[1] = Fluorescence lifetime decay (time-resolved) of the donor-acceptor conjugate; type: physicochemical; conditions: for long lifetime: excitation of BH22IAM and energy transfer to fluorescein: terbium complex, excited at BH22IAM absorption (~340 nm), fluorescein emission 520 nm
Excerpt: A short lifetime corresponding to the direct excitation of fluorescein (3.92 nsec) and a long lifetime corresponding to excitation of BH22IAM and energy transfer to fluorescein (524 nsec).
In another exemplary embodiment, the compounds of the invention emit light at an emission wavelength of the fluorophore attached to the metal chelate through the acceptor-linker. […] For example, compound 3, when coordinated to terbium and excited at a BH22IAM absorption wavelength (˜340 nm), the metal chelate emits at 520 nm, the characteristic wavelength of fluorescein with a lifetime of 524 nsec. The new lifetime is over 100-fold longer than the lifetime for a fluorescein solution that is directly excited (<5 nsec).
The 524 nsec of the conjugated fluorescein is acquired through direct excitation of the Tb-BH22IAM complex at 340 nm, which normally has a very long lifetime (2.6 msec), followed by energy transfer to the conjugated fluorescein and emission at the characteristic wavelength for fluorescein (520 nm).

[2] = Steady-state absorption and emission spectra; type: physicochemical; conditions: for emission wavelength / emission maxima: excited at BH22IAM absorption wavelength (~340 nm)
Excerpt: FIG. 8 is a steady-state absorption spectrum of FITC-BH22IAM conjugate.

SMILES	long lifetime: excitation of BH22IAM and energy transfer to fluorescein [1]	absorption maximum (BH22IAM) [2] [nm]	absorption maximum (fluorescein) [2] [nm]	emission wavelength / emission maxima [2]	lifetime relative to a directly excited fluorescein solution ([1]; 524 nsec versus <5 nsec)
O=C(O)c1cc(NC(=S)NCCCCC2CN3CCNC(=O)c4cccc(c4O)C(=O)NCCN(CCNC(=O)c4cccc(c4O)C(=O)N2)CCN2CCNC(=O)c4cccc(c4O)C(=O)NCCN(CCNC(=O)c4cccc(c4O)C(=O)NCC2)CC3)ccc1-c1c2ccc(=O)cc-2oc2cc(O)ccc12 (stereo not shown) [4a]	520 nsec and 524 nsec	340	490	519 nm and 520 nm	
O=C(O)c1cc(NC(=S)NCCCCC2CN3CCNC(=O)c4cccc(c4O)C(=O)NCCN(CCNC(=O)c4cccc(c4O)C(=O)N2)CCN2CCNC(=O)c4cccc(c4O)C(=O)NCCN(CCNC(=O)c4cccc(c4O)C(=O)NCC2)CC3)ccc1-c1c2ccc(=O)cc-2oc2cc(O)ccc12 (stereo not shown) [compound 3]	524 nsec			520 nm	over 100 fold
